From ChEMBL document CHEMBL3351286, “Strategies to inhibit tumor associated integrin receptors: rationale for dual and multi-antagonists” (J Med Chem, 2014)

What was measured:
[1] = biological target: Integrin alpha2/beta1 (Homo sapiens, UniProt P05556+P17301); test: Antagonist activity at alpha2beta1 integrin receptor (unknown origin) by cell-free ELISA; assay type: protein-complex assay
[2] = biological target: Integrin alpha-V/beta-8 (Homo sapiens, UniProt P06756+P26012); test: Antagonist activity at alphavbeta8 integrin receptor (unknown origin) by cell-free ELISA; assay type: protein-complex assay
[3] = biological target: T1, Integrin alpha-V/beta-5 (Homo sapiens, UniProt P06756+P18084); test: Antagonist activity at alphavbeta5 integrin receptor (unknown origin) by cell-based ELISA
[4] = biological target: Integrin alpha-IIb/beta-3 (Homo sapiens, UniProt P05106+P08514); test: Antagonist activity at alpha2bbeta3 integrin receptor (unknown origin) by cell-free ELISA; assay type: protein-complex assay
[5] = biological target: Integrin alpha-10/Integrin beta-1 (Homo sapiens, UniProt O75578+P05556); test: Antagonist activity at alpha10beta1 integrin receptor (unknown origin) by cell-free ELISA; assay type: protein-complex assay
[6] = biological target: Integrin alpha-V/beta-1 (Homo sapiens, UniProt P05556+P06756); test: Antagonist activity at alphavbeta1 integrin receptor (unknown origin) by cell-free ELISA; assay type: protein-complex assay
[7] = biological target: Integrin alpha-V/beta-3 (Homo sapiens, UniProt P05106+P06756); test: Antagonist activity at alphavbeta3 integrin receptor (unknown origin) by cell-free ELISA; assay type: protein-complex assay
[8] = biological target: Integrin alpha-V/beta-6 (Homo sapiens, UniProt P06756+P18564); test: Antagonist activity at alphavbeta6 integrin receptor (unknown origin) by cell-free ELISA; assay type: protein-complex assay
[9] = biological target: Integrin alpha-5/beta-1 (Homo sapiens, UniProt P05556+P08648); test: Antagonist activity at alpha5beta1 integrin receptor (unknown origin) by cell-free ELISA; assay type: protein-complex assay
[10] = biological target: T2, Integrin alpha-4/beta-7 (Homo sapiens, UniProt P13612+P26010); test: Antagonist activity at alpha4beta7 integrin receptor (unknown origin) by cell-free ELISA; assay type: protein-complex assay
T2 sequence (P13612 whole entry): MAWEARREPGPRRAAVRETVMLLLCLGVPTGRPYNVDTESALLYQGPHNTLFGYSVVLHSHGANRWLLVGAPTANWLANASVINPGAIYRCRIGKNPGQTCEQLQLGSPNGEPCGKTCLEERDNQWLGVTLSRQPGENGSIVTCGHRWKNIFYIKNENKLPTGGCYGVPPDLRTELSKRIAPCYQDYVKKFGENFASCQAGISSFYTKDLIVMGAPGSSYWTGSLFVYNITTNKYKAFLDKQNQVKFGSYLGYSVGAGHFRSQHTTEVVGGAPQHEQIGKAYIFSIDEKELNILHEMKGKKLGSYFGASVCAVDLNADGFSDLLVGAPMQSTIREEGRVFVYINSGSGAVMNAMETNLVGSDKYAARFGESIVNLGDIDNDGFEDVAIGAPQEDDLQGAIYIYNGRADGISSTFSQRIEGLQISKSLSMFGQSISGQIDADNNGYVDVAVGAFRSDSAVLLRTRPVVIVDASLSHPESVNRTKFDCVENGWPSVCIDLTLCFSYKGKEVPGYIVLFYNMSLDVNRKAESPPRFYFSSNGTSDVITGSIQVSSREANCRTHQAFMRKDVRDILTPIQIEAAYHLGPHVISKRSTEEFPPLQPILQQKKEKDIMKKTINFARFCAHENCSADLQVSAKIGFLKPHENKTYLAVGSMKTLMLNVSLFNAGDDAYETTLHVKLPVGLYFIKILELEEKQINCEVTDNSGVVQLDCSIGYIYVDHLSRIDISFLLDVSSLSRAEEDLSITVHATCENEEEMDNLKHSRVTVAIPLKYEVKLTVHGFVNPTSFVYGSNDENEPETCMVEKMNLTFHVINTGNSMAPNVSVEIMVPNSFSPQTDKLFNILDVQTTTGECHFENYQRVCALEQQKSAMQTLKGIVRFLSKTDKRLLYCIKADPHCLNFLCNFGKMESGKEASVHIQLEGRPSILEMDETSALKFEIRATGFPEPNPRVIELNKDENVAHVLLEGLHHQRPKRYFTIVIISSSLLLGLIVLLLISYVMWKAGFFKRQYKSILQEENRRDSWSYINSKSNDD
T2 sequence (P26010 whole entry): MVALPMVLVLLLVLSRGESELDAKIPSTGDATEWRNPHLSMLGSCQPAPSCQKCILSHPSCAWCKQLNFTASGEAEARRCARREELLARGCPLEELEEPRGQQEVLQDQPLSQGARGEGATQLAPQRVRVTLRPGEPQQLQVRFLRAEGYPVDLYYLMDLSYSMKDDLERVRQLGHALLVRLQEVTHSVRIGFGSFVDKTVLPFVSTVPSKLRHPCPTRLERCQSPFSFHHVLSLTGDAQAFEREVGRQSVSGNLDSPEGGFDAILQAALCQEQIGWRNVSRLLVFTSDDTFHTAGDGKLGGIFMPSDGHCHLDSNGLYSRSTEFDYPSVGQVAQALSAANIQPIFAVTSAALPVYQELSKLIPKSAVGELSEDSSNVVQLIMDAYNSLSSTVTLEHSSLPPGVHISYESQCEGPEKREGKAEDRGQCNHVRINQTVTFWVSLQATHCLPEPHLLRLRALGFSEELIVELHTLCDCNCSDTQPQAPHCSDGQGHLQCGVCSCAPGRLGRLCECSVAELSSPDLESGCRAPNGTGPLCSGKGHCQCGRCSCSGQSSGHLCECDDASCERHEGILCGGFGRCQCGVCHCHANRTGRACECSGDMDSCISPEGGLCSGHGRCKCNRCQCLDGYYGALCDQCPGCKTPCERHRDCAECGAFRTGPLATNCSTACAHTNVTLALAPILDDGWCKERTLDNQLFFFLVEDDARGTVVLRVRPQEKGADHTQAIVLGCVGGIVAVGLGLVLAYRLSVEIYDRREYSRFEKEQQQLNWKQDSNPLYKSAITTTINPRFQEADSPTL

[11] = biological target: T1, Integrin alpha-V/beta-5; test: Antagonist activity at alphavbeta5 integrin receptor (unknown origin) by cell-free ELISA; assay type: protein-complex assay

Chain of Integrin alpha-V/beta-1 (P05556 21-798 limits assumed): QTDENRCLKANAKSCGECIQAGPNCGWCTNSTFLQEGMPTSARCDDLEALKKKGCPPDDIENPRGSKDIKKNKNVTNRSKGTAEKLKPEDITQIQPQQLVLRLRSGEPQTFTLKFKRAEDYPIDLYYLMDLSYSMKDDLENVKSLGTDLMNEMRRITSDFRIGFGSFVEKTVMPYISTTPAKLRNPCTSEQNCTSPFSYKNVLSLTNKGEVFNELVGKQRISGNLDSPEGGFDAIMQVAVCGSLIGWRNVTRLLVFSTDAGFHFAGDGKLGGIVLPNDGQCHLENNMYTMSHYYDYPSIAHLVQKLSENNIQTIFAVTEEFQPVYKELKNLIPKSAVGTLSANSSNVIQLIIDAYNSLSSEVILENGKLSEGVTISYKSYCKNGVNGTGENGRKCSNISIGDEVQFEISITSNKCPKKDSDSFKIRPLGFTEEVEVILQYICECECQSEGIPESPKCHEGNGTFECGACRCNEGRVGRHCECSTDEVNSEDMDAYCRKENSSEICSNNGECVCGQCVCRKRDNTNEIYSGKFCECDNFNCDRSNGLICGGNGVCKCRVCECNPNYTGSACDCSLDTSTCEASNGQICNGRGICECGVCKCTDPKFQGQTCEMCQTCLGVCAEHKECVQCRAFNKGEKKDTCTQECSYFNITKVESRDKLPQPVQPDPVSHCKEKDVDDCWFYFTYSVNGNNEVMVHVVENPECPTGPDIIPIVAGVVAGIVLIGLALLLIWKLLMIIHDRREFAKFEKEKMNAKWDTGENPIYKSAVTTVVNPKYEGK
Chain of Integrin alpha-V/beta-1 (P06756 31-889 limits assumed): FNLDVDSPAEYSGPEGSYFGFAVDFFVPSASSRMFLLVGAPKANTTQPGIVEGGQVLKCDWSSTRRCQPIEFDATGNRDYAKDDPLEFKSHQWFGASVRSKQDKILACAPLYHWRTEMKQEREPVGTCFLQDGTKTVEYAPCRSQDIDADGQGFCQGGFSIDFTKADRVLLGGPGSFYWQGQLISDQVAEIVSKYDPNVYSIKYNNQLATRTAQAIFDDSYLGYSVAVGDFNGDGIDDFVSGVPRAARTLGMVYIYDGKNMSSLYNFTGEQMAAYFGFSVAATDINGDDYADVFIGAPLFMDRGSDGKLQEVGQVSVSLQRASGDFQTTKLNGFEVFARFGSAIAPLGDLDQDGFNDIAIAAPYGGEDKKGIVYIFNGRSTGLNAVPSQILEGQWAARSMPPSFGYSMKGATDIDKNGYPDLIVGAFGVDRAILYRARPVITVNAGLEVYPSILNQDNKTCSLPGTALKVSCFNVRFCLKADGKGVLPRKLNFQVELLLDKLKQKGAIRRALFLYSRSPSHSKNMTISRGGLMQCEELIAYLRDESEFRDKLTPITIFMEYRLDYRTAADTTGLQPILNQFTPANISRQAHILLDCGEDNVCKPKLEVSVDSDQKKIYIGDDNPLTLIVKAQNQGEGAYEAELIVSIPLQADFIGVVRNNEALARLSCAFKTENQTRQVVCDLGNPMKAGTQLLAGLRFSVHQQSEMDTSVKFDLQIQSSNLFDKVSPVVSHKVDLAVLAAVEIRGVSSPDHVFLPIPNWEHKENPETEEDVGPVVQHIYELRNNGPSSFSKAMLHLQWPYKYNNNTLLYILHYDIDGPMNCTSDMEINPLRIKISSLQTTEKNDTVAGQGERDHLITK
Chain of Integrin alpha-V/beta-1 (P06756 891-1048 limits assumed): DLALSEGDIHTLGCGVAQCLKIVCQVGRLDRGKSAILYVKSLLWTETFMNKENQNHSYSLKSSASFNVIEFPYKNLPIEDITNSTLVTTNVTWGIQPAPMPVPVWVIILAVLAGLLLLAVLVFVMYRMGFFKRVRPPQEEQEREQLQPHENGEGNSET
Chain of Integrin alpha2/beta1 (P05556 whole entry): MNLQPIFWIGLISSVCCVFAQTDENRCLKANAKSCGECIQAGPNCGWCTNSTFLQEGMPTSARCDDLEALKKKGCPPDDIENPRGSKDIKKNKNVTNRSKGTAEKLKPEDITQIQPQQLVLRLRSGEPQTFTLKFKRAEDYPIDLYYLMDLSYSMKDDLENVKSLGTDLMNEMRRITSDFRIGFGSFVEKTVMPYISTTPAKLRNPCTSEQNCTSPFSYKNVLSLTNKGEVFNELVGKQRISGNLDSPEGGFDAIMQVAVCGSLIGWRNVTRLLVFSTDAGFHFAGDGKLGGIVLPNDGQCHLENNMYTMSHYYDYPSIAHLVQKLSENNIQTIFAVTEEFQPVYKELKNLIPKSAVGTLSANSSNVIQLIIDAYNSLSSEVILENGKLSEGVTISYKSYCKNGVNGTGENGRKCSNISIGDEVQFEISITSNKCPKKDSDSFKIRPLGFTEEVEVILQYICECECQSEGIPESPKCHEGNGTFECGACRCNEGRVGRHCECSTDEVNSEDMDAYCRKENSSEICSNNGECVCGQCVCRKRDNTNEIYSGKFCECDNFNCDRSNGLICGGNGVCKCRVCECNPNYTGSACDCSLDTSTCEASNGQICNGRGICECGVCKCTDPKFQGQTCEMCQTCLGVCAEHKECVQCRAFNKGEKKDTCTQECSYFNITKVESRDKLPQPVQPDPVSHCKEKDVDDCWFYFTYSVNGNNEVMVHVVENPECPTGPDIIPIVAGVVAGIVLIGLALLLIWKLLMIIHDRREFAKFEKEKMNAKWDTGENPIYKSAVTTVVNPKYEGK
Chain of Integrin alpha2/beta1 (P17301 whole entry): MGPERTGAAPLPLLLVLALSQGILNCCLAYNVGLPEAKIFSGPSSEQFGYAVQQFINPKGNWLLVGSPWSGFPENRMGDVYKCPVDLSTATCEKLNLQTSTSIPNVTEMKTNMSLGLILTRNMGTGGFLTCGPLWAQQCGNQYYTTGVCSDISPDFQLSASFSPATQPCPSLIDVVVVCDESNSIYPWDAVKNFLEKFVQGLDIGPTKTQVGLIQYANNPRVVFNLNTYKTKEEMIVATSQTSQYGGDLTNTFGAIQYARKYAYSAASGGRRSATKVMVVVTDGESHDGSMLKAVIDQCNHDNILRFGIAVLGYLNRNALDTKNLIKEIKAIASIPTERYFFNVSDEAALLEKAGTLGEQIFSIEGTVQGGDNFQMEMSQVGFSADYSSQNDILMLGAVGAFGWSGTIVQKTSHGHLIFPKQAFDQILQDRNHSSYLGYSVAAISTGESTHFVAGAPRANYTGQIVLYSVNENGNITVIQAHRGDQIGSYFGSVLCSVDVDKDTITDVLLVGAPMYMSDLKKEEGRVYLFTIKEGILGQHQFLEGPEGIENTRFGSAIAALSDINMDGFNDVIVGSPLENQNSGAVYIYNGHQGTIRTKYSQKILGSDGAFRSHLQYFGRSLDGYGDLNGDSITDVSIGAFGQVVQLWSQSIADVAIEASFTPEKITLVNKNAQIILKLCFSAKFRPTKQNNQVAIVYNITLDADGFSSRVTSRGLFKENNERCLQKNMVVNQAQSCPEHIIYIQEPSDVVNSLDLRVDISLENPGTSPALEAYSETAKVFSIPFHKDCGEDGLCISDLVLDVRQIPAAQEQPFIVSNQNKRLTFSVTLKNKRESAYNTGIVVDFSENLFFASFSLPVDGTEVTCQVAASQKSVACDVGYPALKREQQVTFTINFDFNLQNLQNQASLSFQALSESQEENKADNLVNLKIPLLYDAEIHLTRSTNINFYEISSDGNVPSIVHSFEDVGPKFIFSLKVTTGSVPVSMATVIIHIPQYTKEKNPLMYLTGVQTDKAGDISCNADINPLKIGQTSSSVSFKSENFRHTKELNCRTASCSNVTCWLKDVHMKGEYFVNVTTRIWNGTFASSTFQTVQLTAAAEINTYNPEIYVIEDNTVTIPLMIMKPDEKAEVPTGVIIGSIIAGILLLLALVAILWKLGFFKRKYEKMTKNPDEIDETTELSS
Chain of Integrin alpha-V/beta-8 (P06756 31-889 limits assumed): as the sequence (P06756 31-889 limits assumed) above
Chain of Integrin alpha-V/beta-8 (P06756 891-1048 limits assumed): as the sequence (P06756 891-1048 limits assumed) above
Chain of Integrin alpha-V/beta-8 (P26012 43-769 limits assumed): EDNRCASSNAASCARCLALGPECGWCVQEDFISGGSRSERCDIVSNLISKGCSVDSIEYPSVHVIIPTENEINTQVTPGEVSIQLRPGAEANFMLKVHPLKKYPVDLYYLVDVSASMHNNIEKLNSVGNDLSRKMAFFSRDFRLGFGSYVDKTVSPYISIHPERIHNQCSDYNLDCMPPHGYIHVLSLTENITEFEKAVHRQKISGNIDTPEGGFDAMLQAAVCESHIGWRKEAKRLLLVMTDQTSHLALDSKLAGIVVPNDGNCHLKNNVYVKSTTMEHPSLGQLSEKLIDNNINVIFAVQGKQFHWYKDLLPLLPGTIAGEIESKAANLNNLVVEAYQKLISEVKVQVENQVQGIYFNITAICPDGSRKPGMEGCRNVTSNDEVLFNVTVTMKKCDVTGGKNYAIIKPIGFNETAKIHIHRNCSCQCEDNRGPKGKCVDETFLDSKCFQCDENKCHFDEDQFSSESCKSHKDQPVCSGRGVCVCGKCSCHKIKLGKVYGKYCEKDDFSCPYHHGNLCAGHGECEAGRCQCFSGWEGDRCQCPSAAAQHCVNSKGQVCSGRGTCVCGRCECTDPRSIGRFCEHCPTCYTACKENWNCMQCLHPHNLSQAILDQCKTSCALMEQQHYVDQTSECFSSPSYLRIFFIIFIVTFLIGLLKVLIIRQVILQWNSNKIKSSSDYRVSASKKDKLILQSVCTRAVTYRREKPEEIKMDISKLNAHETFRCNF

Compound | IC50 [1] [nM] | IC50 [2] [nM] | IC50 [3] [nM] | IC50 [4] [nM] | IC50 [5] [nM] | IC50 [6] [nM] | IC50 [7] [nM] | IC50 [8] [nM] | IC50 [9] [nM] | IC50 [10] [nM] | IC50 [11] [nM]
CC(C)(C)c1cc(Br)cc([C@H](CC(=O)O)NC(=O)CNC(=O)c2cc(O)cc(NC3=NCC(O)CN3)c2)c1 (some centres undefined) | > 5000 | 0.2 | 61 | > 5000 | > 5000 | 1.8 |  |  |  |  | 
COc1ccc(S(=O)(=O)N[C@@H](CNc2nc(C)nc(N3CCC(c4ccc5c(n4)NCCC5)CC3)c2C)C(=O)O)cc1 [GLPG-0187] | > 10000 | 1.2 |  |  |  | 1.3 | 3.7 | 1.4 | 7.7 | > 10000 | 2
